Source: patent US11427567B2, “Imidazolyl pyrimidinylamine compounds as CDK2 inhibitors” (Incyte Corporation, priority 2019, dated 2022)

Target: CDK2/Cyclin E1 (Homo sapiens (Human), UniProt P24941)
Assay: CDK2/Cyclin E1 HTRF enzyme activity assay (Example A)
Type: biochemical
Settings: 1 mM ATP
Experimental: Assays were conducted in white 384-well polystyrene plates in a final reaction volume of 8 μL. […] HTRF signals were read after 1 hour at room temperature on a PHERAstar FS plate reader (BMG Labtech). Data was analyzed with IDBS XLFit and GraphPad Prism 5.0 software using a three or four parameter dose response curve to determine IC50 for each compound.

Row | SMILES | IC50 [nM]
1 | Cc1nc(-c2nc(NC3CCN(S(C)(=O)=O)CC3)ncc2C(F)(F)F)cn1-c1ccc(CCN2CCC2)cc1F [Example 416, 4-(1-(4-(2-(Azetidin-1-yl)ethyl)-2-fluorophenyl)-2-methyl-1H-imidazol-4-yl)-N-(1-(methylsulfonyl)piperidin-4-yl)-5-(trifluoromethyl)pyrimidin-2-amine] | ≤ 50
2 | CN(C)Cc1ccc(-n2cnc(-c3nc(NC4CCN(S(C)(=O)=O)CC4)ncc3C(F)(F)F)c2)c(C(F)(F)F)n1 [Example 246, 4-(1-(6-((Dimethylamino)methyl)-2-(trifluoromethyl)pyridin-3-yl)-1H-imidazol-4-yl)-N-(1-(methylsulfonyl)piperidin-4-yl)-5-(trifluoromethyl)pyrimidin-2-amine] | ≤ 50
3 | CCN(C)CCOc1ccc(-n2cnc(-c3nc(NC4CCN(S(C)(=O)=O)CC4)ncc3C(F)(F)F)c2)c(C#N)n1 [Example 76, 6-(2-(Ethyl(methyl)amino)ethoxy)-3-(4-(2-((1-(methylsulfonyl)piperidin-4-yl)amino)-5-(trifluoromethyl)pyrimidin-4-yl)-1H-imidazol-1-yl)picolinonitrile] | ≤ 50
4 | Cc1nc(-c2nc(NC3CCN(S(C)(=O)=O)CC3)ncc2C(F)(F)F)cn1-c1ccc(OC[C@H]2CCCN2C)cc1F [Example 426, (R)-4-(1-(2-Fluoro-4-((1-methylpyrrolidin-2-yl)methoxy)phenyl)-2-methyl-1H-imidazol-4-yl)-N-(1-(methylsulfonyl)piperidin-4-yl)-5-(trifluoromethyl)pyrimidin-2-amine] | ≤ 50
5 | Cc1nc(-c2nc(NC3CCN(S(C)(=O)=O)CC3)ncc2C#N)cn1-c1ccc(C#N)cc1F [Example 290, 4-(1-(4-Cyano-2-fluorophenyl)-2-methyl-1H-imidazol-4-yl)-2-((1-(methylsulfonyl)piperidin-4-yl)amino)pyrimidine-5-carbonitrile] | ≤ 50
6 | Cn1cc(S(=O)(=O)N2CCC(Nc3ncc(C(F)(F)F)c(-c4cn(-c5cccnc5C(F)F)cn4)n3)CC2)cn1 [Example 88, 4-(1-(2-(Difluoromethyl)pyridin-3-yl)-1H-imidazol-4-yl)-N-(1-((1-methyl-1H-pyrazol-4-yl)sulfonyl)piperidin-4-yl)-5-(trifluoromethyl) pyrimidin-2-amine] | ≤ 50
7 | Cc1nc(-c2nc(NC3CCN(S(C)(=O)=O)CC3)ncc2C(F)(F)F)cn1-c1ccc(OCCN2CCCC2)cc1F [Example 424, 4-(1-(2-Fluoro-4-(2-(pyrrolidin-1-yl)ethoxy)phenyl)-2-methyl-1H-imidazol-4-yl)-N-(1-(mehtylsulfonyl)piperidin-4-yl)-5-(trifluoromethyl)pyrimidin-2-amine] | ≤ 50
8 | CC1(NCc2cccc(-n3cnc(-c4nc(NC5CCN(S(C)(=O)=O)CC5)ncc4C(F)(F)F)c3)c2Cl)CCOCC1 [Example 79, 4-(1-(2-Chloro-3-(((4-methyltetrahydro-2H-pyran-4-yl)amino)methyl)phenyl)-1H-imidazol-4-yl)-N-(1-(methylsulfonyl)piperidin-4-yl)-5-(trifluoromethyl)pyrimidin-2-amine] | ≤ 50
9 | CNCc1ccc(-n2cnc(-c3nc(NC4CCN(S(C)(=O)=O)CC4)ncc3C(F)(F)F)c2)c(C(F)(F)F)c1 [Example 254, 4-(1-(4-((Methylamino)methyl)-2-(trifluoromethyl)phenyl)-1H-imidazol-4-yl)-N-(1-(methylsulfonyl)piperidin-4-yl)-5-(trifluoromethyl)pyrimidin-2-amine] | ≤ 50
10 | Cc1nccc(-n2cnc(-c3nc(NC4CCN(S(C)(=O)=O)CC4)ncc3C(F)(F)F)c2)c1C#N [Example 293, 2-Methyl-4-(4-(2-((1-(methylsulfonyl)piperidin-4-yl)amino)-5-(trifluoromethyl)pyrimidin-4-yl)-1H-imidazol-1-yl)nicotinonitrile] | ≤ 50
11 | CC1(O)CN(Cc2cccc(-n3cnc(-c4nc(NC5CCN(S(C)(=O)=O)CC5)ncc4C(F)(F)F)c3)c2C(F)(F)F)C1 [Example 379, 3-Methyl-1-(3-(4-(2-((1-(methylsulfonyl)piperidin-4-yl)amino)-5-(trifluoromethyl)pyrimi-din-4-yl)-1H-imidazol-1-yl)-2-(trifluoromethyl)benzyl) azetidin-3-ol] | ≤ 50

Continued, values first:

Row | IC50 [nM] | SMILES
12 | ≤ 50 | CN(C)CCN(C)c1ccc(-n2cnc(-c3nc(NC4CCN(S(C)(=O)=O)CC4)ncc3C(F)(F)F)c2)c(Cl)c1 [Example 149, N^1-(3-Chloro-4-(4-(2-((1-(methyl-sulfonyl)piperidin-4-yl)amino)-5-(trifluoromethyl)-pyrimidin-4-yl)-1H-imidazol-1-yl)-phenyl)-N1,N2,N2-trimethylethane-1,2-diamine]
13 | ≤ 50 | Cc1nc(-c2nc(NC3CCN(S(C)(=O)=O)CC3)ncc2C(F)(F)F)cn1-c1ccc(CNC2CC2)cc1F [Example 356, 4-(1-(4-((Cyclopropylamino)methyl)-2-fluorophenyl)-2-methyl-1H-imidazol-4-yl)-N-(1-(methylsulfonyl)piperidin-4-yl)-5-(trifluoromethyl)pyrimidin-2-amine]
14 | ≤ 50 | Cc1nc(-c2nc(N[C@H]3CCN(S(C)(=O)=O)C[C@H]3F)ncc2C(F)(F)F)cn1-c1ccc(CN(C)C)cc1F [Example 286, 4-(1-(4-((Dimethylamino)methyl)-2-fluorophenyl)-2-methyl-1H-imidazol-4-yl)-N-((3R,4S)-3-fluoro-1-(methylsulfonyl)piperidin-4-yl)-5-(trifluoromethyl)pyrimidin-2-amine]
15 | ≤ 50 | CS(=O)(=O)N1CCC(Nc2ncc(C(F)(F)F)c(-c3cn(-c4ccc(CN5CC6CCC5CO6)cc4Cl)cn3)n2)CC1 (stereo not shown) [Example 216, 4-(1-(4-((2-Oxa-5-azabicyclo[2.2.2]-octan-5-yl)methyl)-2-chlorophenyl)-1H-imidazol-4-yl)-N-(1-(methylsulfonyl)-piperidin-4-yl)-5-(trifluoromethyl)-pyrimidin-2-amine]
16 | ≤ 50 | CCN1CCN(Cc2ccc(-n3cc(-c4nc(N[C@H]5CCN(S(C)(=O)=O)C[C@H]5F)ncc4C(F)(F)F)nc3C)c(F)c2)CC1 [Example 445, 4-(1-(4-((4-Ethylpiperazin-1-yl)methyl)-2-fluorophenyl)-2-methyl-1H-imidazol-4-yl)-N-((3R,4S)-3-fluoro-1-(methylsulfonyl)piperidin-4-yl)-5-(trifluoromethyl)pyrimidin-2-amine]
17 | ≤ 50 | CS(=O)(=O)N1CCC(Nc2ncc(C(F)(F)F)c(-c3cn(-c4ccc(CN5CCCC5)cc4Cl)cn3)n2)CC1 [Example 178, 4-(1-(2-Chloro-4-(pyrrolidin-1-ylmethyl)phenyl)-1H-imidazol-4-yl)-N-(1-(methylsulfonyl)piperidin-4-yl)-5-(trifluoromethyl)pyrimidin-2-amine]
18 | ≤ 50 | Cc1nc(-c2nc(NC3CCN(S(C)(=O)=O)CC3)ncc2C(F)(F)F)cn1-c1ccc(N2CC[C@H](O)C2)cc1F [Example 116, (S)-1-(3-Fluoro-4-(2-methyl-4-(2-((1-(methylsulfonyl)-piperidin-4-yl)-amino)-5-(trifluoro-methyl)pyrimidin-4-yl)-1H-imidazol-1-yl)phenyl)pyrrolidin-3-ol]
19 | ≤ 50 | CC(C)(O)Cn1cnc(-c2nc(N[C@H]3CCN(S(=O)(=O)C4CC4)C[C@H]3F)ncc2C(F)(F)F)c1 [Example 323, 1-(4-(2-(((3R,4S)-1-(Cyclopropylsulfonyl)-3-fluoropiperidin-4-yl)amino)-5-(trifluoromethyl)pyrimidin-4-yl)-1H-imidazol-1-yl)-2-methylpropan-2-ol]
